pIC50: −log10 of the molar value. Read-outs that look alike come from different tables or passages of the source.
Columns and labels:
BRD4-BD12 (1-477) = BRD4-BD12 (1-477) (Homo sapiens (Human), UniProt O60885); test: Alphascreen binding assay BRD4-BD12; details: BRD4(1 2) H4; read-out: Biochemical activity (IC50 μM) BRD4(1 2) H4
Procedure, shortened: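 First, compound was preincubated 1 h at room temperature with the His-tagged BRD4 protein (BD1 44-164 or tandem BD12 1-477) and acetylated H4 peptide. Next, donor and acceptor beads were added at 7.5 μg/ml final. After 30 min, AlphaScreen emission was recorded.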

MV-4-11 cells = test: Oncology cell growth assay MV-4-11 (CellTiter Glo); assay type: cell-based; details: Homo sapiens, MV4-11, 72 h, read-out: Cell activity (IC50 μM) MV-4-11 3d-Growth
Procedure, shortened: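 MV-4-11 AML cells (MLL-AF4), 3000 per well, exposed to 8-point 1:3 compound titration from 10 μM top concentration (0.2% DMSO) for 72 h. Viability by CellTiter Glo luminescence, normalized to DMSO controls; pIC50 from four-parameter curve fit.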

bromodomain = test: at least one of the bromodomain cell assays of Example 57; assay type: cell-based; details: at least one of the bromodomain cell assays described in Example 57; read-out: IC50 in at least one of the bromodomain cell assays

SMILES	IC50 (BRD4-BD12 (1-477))	IC50 (MV-4-11 cells; MV-4-11, 3d growth)	pIC50 (bromodomain)	IC50 (MV-4-11 cells)
Cc1ccc(-c2cn(CC3(F)CCCCC3)c3cc(-c4c(C)noc4C)cnc23)cn1 [P-0463, 4-[1-[(1-fluorocyclohexyl)methyl]-3-(6-methyl-3-pyridyl)pyrrolo[3,2-b]pyridin-6-yl]-3,5-dimethyl-isoxazole]	< 1 µM	< 1 µM	> 5.00	
COC(=O)c1ccc(-c2cn(CC3CC4(CCC4)C3)c3cc(-c4c(C)noc4C)cnc23)cc1 [P-0602, methyl 4-[6-(3,5-dimethylisoxazol-4-yl)-1-(spiro[3.3]heptan-6-ylmethyl)pyrrolo[3,2-b]pyridin-3-yl]benzoate]	< 1 µM	< 1 µM	> 5.00	
COC(=O)c1ccc(-c2cn(CC3CCCCCC3)c3cc(-c4c(C)noc4C)cnc23)cc1 [P-0585, methyl 4-[1-(cycloheptylmethyl)-6-(3,5-dimethylisoxazol-4-yl)pyrrolo[3,2-b]pyridin-3-yl]benzoate]	< 1 µM	1 to 10 µM	> 5.00	
Cc1noc(C)c1-c1cnc2c(-c3ccc(C(=O)O)cc3)cn(Cc3cccnn3)c2c1 [P-0540, 4-[6-(3,5-dimethylisoxazol-4-yl)-1-(pyridazin-3-ylmethyl)pyrrolo[3,2-b]pyridin-3-yl]benzoic acid]	< 1 µM	< 1 µM	> 5.00	
Cc1noc(C)c1-c1cnc2c(-c3ccc(C(=O)O)s3)cn(CC3(F)CCCCC3)c2c1 [P-0478, 5-[6-(3,5-dimethylisoxazol-4-yl)-1-[(1-fluorocyclohexyl)methyl]pyrrolo[3,2-b]pyridin-3-yl]thiophene-2-carboxylic acid]	< 1 µM	< 1 µM	> 5.00	
Cc1noc(C)c1-c1cnc2c(-c3ccc(C(=O)O)s3)cn(CC3CCC(F)(F)CC3)c2c1 [P-0485, 5-[1-[(4,4-difluorocyclohexyl)methyl]-6-(3,5-dimethylisoxazol-4-yl)pyrrolo[3,2-b]pyridin-3-yl]thiophene-2-carboxylic acid]	< 1 µM	< 1 µM	> 5.00	
[2H]C([2H])(C1CCC(F)(F)CC1)n1cc(-c2cnco2)c2ncc(-c3c(C)noc3C)cc21 [P-0334, 4-[1-[dideuterio-(4,4-difluorocyclohexyl)methyl]-3-oxazol-5-yl-pyrrolo[3,2-b]pyridin-6-yl]-3,5-dimethyl-isoxazole]	< 1 µM		> 5.00	< 1 µM
Cc1noc(C)c1-c1cnc2c(-c3ccc(CC(=O)O)cc3)cn(CC3CCCCCC3)c2c1 [P-0587, 2-[4-[1-(cycloheptylmethyl)-6-(3,5-dimethylisoxazol-4-yl)pyrrolo[3,2-b]pyridin-3-yl]phenyl]acetic acid]	< 1 µM	< 1 µM	> 5.00	
CCOC(=O)c1ccc(-n2cc(CC3CCC(F)(F)CC3)c3cc(-c4c(C)noc4C)cnc32)nc1 [P-0429, ethyl 6-[3-[(4,4-difluorocyclohexyl)methyl]-5-(3,5-dimethylisoxazol-4-yl)pyrrolo[2,3-b]pyridin-1-yl]pyridine-3-carboxylate]	< 1 µM	1 to 10 µM	> 5.00	
Cc1noc(C)c1-c1cnc2c(-c3ccc(C#N)cc3)cn([C@@H](C)c3ccccn3)c2c1 [P-0573, 4-[6-(3,5-dimethylisoxazol-4-yl)-1-[(1S)-1-(2-pyridyl)ethyl]pyrrolo[3,2-b]pyridin-3-yl]benzonitrile]	< 1 µM	< 1 µM	> 5.00	
Cc1noc(C)c1-c1cnc2c(-c3ccc(C(=O)O)cc3)cn([C@@H](c3ccccc3)c3ccccn3)c2c1 [P-0711, 4-[6-(3,5-dimethylisoxazol-4-yl)-1-[(S)-phenyl(2-pyridyl)methyl]pyrrolo[3,2-b]pyridin-3-yl]benzoic acid]	< 1 µM	< 1 µM	> 5.00	
Cc1noc(C)c1-c1cnc2c(-c3ccc(C(=O)O)cc3F)cn(CC3CCC(F)(F)CC3)c2c1 [P-0417, 4-[1-[(4,4-difluorocyclohexyl)methyl]-6-(3,5-dimethylisoxazol-4-yl)pyrrolo[3,2-b]pyridin-3-yl]-3-fluoro-benzoic acid]	< 1 µM		> 5.00	< 1 µM
